Assay results as given in patent EP0800503B1, “NOVEL TRIENOIC RETINOID COMPOUNDS AND METHODS” (LIGAND PHARMACEUTICALS, INC., priority 1994, dated 1996).
Where two headings read alike, the source gives them in different places.

Legend:
RARα [1] = target: T1, RARα (Homo sapiens, UniProt P10276); test: Co-transfection assay; assay type: cell-based; conditions: read-out: RARα Pot
T1 sequence (P10276 1-462): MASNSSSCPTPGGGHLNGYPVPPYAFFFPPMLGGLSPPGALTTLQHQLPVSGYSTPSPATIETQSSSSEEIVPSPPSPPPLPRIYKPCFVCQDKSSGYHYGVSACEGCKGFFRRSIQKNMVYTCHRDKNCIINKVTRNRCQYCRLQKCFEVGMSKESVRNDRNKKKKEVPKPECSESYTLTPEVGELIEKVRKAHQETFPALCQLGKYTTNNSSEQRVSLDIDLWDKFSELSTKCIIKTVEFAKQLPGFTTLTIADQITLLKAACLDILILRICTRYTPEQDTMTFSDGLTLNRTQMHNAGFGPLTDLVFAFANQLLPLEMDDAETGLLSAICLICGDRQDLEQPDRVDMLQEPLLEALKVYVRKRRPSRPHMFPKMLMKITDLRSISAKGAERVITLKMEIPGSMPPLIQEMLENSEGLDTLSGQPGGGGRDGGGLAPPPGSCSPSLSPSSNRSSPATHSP

RARβ = target: T2, RARβ (Homo sapiens, UniProt P10826); test: Co-transfection assay; assay type: cell-based; conditions: read-out: RARβ Pot
T2 sequence (P10826 1-448 isoform P10826-2): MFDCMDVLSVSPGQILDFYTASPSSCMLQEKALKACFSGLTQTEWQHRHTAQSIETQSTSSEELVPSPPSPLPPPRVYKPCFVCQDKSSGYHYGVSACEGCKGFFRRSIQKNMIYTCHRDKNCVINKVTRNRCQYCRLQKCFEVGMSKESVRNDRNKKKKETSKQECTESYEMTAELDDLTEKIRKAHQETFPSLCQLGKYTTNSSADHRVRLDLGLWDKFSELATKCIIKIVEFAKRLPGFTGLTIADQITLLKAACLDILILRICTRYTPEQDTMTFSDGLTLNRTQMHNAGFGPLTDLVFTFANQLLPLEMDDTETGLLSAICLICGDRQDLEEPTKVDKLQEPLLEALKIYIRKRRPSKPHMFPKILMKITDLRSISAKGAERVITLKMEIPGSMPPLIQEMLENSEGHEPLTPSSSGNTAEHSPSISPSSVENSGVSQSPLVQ

RARγ = target: T3, RARγ (Homo sapiens, UniProt P13631); test: Co-transfection assay; assay type: cell-based; conditions: read-out: RARγ Pot
T3 sequence (P13631 1-454): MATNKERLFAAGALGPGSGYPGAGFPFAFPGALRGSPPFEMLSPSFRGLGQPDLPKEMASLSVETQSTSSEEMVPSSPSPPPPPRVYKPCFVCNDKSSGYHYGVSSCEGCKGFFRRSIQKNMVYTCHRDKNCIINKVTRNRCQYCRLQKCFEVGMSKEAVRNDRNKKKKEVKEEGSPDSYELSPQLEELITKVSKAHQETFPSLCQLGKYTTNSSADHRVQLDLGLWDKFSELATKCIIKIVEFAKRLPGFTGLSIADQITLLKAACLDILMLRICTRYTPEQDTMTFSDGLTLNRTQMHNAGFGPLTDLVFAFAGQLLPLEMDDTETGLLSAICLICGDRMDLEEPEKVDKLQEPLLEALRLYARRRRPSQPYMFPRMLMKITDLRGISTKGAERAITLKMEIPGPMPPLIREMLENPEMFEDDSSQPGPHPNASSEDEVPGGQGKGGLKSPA

RXRα = target: T4, RXRα (Homo sapiens, UniProt P19793); test: Co-transfection assay; assay type: cell-based; conditions: read-out: RXRα Pot
T4 sequence (P19793 1-462): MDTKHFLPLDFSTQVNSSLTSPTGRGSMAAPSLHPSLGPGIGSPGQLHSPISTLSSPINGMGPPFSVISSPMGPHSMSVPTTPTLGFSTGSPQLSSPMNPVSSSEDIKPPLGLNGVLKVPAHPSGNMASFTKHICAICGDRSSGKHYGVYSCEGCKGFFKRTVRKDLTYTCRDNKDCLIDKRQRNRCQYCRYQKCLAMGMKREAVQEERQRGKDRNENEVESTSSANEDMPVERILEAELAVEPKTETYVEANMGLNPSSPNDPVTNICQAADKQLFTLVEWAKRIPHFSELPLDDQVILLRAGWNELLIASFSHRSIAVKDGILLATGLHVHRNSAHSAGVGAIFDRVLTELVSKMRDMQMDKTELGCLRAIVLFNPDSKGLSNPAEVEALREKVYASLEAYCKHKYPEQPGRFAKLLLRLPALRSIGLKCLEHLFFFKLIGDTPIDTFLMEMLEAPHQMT

RXRβ = target: T5, RXRβ (Mus musculus, UniProt P28704); test: Co-transfection assay; assay type: cell-based; conditions: read-out: RXRβ Pot
T5 sequence (P28704 1-520): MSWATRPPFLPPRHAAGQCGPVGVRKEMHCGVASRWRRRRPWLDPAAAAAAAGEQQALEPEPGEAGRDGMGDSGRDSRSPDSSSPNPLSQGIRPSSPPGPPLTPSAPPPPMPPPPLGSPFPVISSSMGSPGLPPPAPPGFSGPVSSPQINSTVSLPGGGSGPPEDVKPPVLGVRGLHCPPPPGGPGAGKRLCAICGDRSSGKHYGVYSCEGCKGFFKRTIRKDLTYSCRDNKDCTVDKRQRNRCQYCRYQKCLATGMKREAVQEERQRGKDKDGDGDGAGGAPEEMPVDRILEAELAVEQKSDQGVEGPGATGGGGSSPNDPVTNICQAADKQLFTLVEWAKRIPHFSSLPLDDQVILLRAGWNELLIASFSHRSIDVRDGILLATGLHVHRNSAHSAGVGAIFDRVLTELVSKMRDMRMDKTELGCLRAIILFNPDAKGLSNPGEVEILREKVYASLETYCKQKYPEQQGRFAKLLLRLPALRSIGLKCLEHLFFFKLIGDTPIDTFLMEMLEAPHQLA

RXRγ = target: T6, RXRγ (Mus musculus, UniProt P28705); test: Co-transfection assay; assay type: cell-based; conditions: read-out: RXRγ Pot
T6 sequence (P28705 1-463): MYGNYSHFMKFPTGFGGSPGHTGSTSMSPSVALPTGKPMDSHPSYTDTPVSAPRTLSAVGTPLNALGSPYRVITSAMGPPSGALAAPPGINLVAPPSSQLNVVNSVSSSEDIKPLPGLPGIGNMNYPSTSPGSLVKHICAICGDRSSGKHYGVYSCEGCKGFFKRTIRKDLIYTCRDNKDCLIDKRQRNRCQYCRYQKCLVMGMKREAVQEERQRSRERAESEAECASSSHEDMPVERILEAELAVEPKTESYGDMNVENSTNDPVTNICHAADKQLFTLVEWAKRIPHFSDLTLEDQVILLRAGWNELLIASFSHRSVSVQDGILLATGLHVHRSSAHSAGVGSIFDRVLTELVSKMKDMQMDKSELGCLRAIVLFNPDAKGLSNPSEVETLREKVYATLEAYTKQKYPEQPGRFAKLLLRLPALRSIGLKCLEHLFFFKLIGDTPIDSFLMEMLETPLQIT

RPMI 8226 cell line = test: Viability (tetrazolium dye, MTS); assay type: cell-based; conditions: Homo sapiens, 96 hours, mitochondrial function / viability
ME 180 cell line = test: Viability (tetrazolium dye, MTS); assay type: cell-based; conditions: Homo sapiens, 96 hours, mitochondrial function / viability
AML-193 cell line = test: Viability (tetrazolium dye, MTS); assay type: cell-based; conditions: Homo sapiens, 96 hours, mitochondrial function / viability
TPA induction of ODC = test: Ornithine decarboxylase (ODC) assay, inhibition of TPA induction of ODC; assay type: cell-based; conditions: concentration required to inhibit the TPA induction of ODC by 80 percent
RARα [2] = target: T1, RARα; test: Receptor binding (competition with tritiated retinoids); conditions: from IC50 by Cheng-Prussof equation

Compound	EC50 (RARα [1]) [nM]	EC50 (RARβ) [nM]	EC50 (RARγ) [nM]	EC50 (RXRα) [nM]	EC50 (RXRβ) [nM]	EC50 (RXRγ) [nM]	further results
CC(/C=C/C=C1\CCOc2c1cc(C(C)(C)C)cc2C(C)(C)C)=C\C(=O)O [Compound 39, (2E,4E,6E)-6-(6,8,-Di-t-butylchroman-4-ylidene)-3-methylhexa-2,4,6-trienoic acid]	5	3	3	> 10000	> 10000	> 10000	–
CCC/C(=C/C=C/C(C)=C/C(=O)O)c1cc(C(C)(C)C)cc(C(C)(C)C)c1 [Compound 28, (2E, 4E, 6Z)-7-(3,5-di-t-butylphenyl)-3-methyldeca-2,4,6-trienoic acid]	> 10000	> 10000	> 10000	20	104	50	–
CC1=C(/C=C/C(C)=C/C=C/C(C)=C/C(=O)O)C(C)(C)CCC1 [ATRA, all-trans retinoic acid, reference compound]	–	–	–	–	–	–	IC50 (RPMI 8226 cell line): 756 nM; IC50 (ME 180 cell line): 890 nM; IC50 (AML-193 cell line): 1000 nM
CC(/C=C/C=C(\C)c1cc(C(F)(F)F)cc(C(F)(F)F)c1)=C\C(=O)O [Compound 41, (2E, 4E, 6E)-7-(3,5-Di-trifluoromethylphenyl)-3-methylocta-2,4,6-trienoic acid]	3	1	4	2010	266	2180	–
COc1cc(C)c(/C=C/C=C/C=C(\C)C(=O)O)c(C)c1C [C, (2E,4E,6E)-2-methyl-7-(2,3,6-trimethyl-4-methoxyphenyl)hepta-2,4,6-trienoic acid, reference compound]	> 10000	> 10000	> 10000	> 10000	> 10000	> 10000	–
COc1c(C(C)(C)C)cc(/C(C)=C/C=C/C(C)=C/C(=O)O)cc1C(C)(C)C [Compound 47, (2E, 4E, 6E) -3-Methyl-7-(3,5-di-t-butyl-4-methoxyphenyl)octa-2,4,6-trienoic acid]	> 10000	1	1	> 10000	> 10000	> 10000	–
CCOC(=O)/C=C(C)/C=C/C=C(/C)c1cc(C(C)(C)C)cc(C(C)(C)C)c1 [Compound 8, Ethyl (2E,4E, 6Z)-7-(3,5-di-t-butylphenyl)-3-methylocta-2,4,6-trienoate]	–	–	–	–	–	–	IC80 (TPA induction of ODC): 152 nM
COc1ccc(/C(C)=C/C=C/C(C)=C/C(=O)O)cc1 [B, (2E,4E,6E)-3-methyl-7-(4-methoxyphenyl)octa-2,4,6-trienoic acid, reference compound]	> 10000	> 10000	> 10000	> 10000	> 10000	> 10000	–
COc1ccc(/C(C)=C/C=C/C(C)=C/C(=O)O)cc1OC [A, (2E,4E,6E)-3-methyl-7-(3,4-dimethoxyphenyl)octa-2,4,6-trienoic acid, reference compound]	> 10000	1480	> 10000	> 10000	> 10000	> 10000	Kd (RARα [2]): 312 nM
CCOC(=O)/C=C(C)/C=C/C=C(\C)c1cc(C(C)(C)C)cc(C(C)(C)C)c1 [Compound 7, Ethyl (2E, 4E, 6E)-7-(3,5-di-t-butylphenyl)-3-methylocta-2,4,6-trienoate]	–	–	–	–	–	–	IC80 (TPA induction of ODC): 4.73 nM
COC(/C=C/C=C(\C)c1ccc(C(C)(C)C)cc1)=C/C(=O)O [D, (2E,4E,6E)-3-methoxy-7-(4-t-butylphenyl)octa-2,4,6-trienoic acid, reference compound]	> 10000	> 10000	> 10000	> 10000	> 10000	> 10000	–
C/C(=C/C=C/C(C)=C/C(=O)O)c1cc(C(C)C)cc(C(C)C)c1 [Compound 43, (2E, 4E, 6Z)-7-(3,5-Di-isopropylphenyl)-3-methylocta-2,4,6-trienoic acid]	65	22	16	27	27	19	–
(2E,4E,6Z)-3-Methyl-7-(3,4-diethyl-6-methylphenyl)nona-2,4,6-trienoic acid [Compound 54]	–	–	–	–	–	–	EC50 (RARα [1]; CV-1 cells, pRShRARα, D-MTV-LUC reporter, 40 hours, potency = EC50): > 10000 nM; EC50 (RARβ; CV-1 cells, pRShRARβ, D-MTV-LUC reporter, 40 hours, potency = EC50): 130 nM; EC50 (RARγ; CV-1 cells, pRShRARγ, D-MTV-LUC reporter, 40 hours, potency = EC50): 320 nM; EC50 (RXRα; CV-1 cells, pRShRXRα, CRBPIIFKLUC reporter, 40 hours, potency = EC50): 58 nM; EC50 (RXRβ; CV-1 cells, pRSmRXRβ, CRBPIIFKLUC reporter, 40 hours, potency = EC50): 28 nM; EC50 (RXRγ; CV-1 cells, pRSmRXRγ, CRBPIIFKLUC reporter, 40 hours, potency = EC50): 78 nM
